According to patent publication US11555014B2, “High penetration prodrug compositions of prostaglandins and related compounds” (Techfields Pharma Co., Ltd., priority 2006, dated 2023):

Key:
Solubility in water = type: physicochemical
Procedure: 37.7 g (0.1 mol) of sodium 11,15-dihydroxy-9-oxoprost-13-en-1-oate was dissolved in 100 ml of acetonitrile. 26.1 g (0.1 mol) of 2-Bromo-N,N-diethylethylamine.HBr and 8.6 g of sodium bicarbonate were added into the reaction mixture. The mixture was stirred for overnight at RT. The solvents were evaporated off. 250 ml of ethyl acetate was added into the reaction mixture and the mixture was washed with water (3×100 ml). The organic solution was dried over anhydrous sodium sulfate. Sodium sulfate was removed by filtration. 6 g of acetic acid was added into the reaction mixture with stirring. Hexane (200 ml) was added. The solid product was collected by filtration. After drying, it yielded 42 g of the desired product (81.8%). Hygroscopic product; Solubility in water: 100 mg/ml; Elementary analysis: C28H51NO7; MW: 513.37. Calculated % C, 65.47; H, 10.01; N, 2.73; O, 21.80. Found % C, 65.42; H, 10.03; N, 2.70; O, 21.85.
43.7 g (0.1 mol) of 11,15-diacetoxy-9-oxoprosta-5,13-dien-1-oic acid was dissolved in 300 ml of chloroform. 20.6 g of N,N′-Dicyclohexylcarbodiimide was added into the reaction mixture. 11.7 g of N,N-diethylaminoethylamine was added into the reaction mixture. The mixture was stirred for 3 hours at RT. The solid was removed by filtration. The chloroform solution was washed with 5% NaHCO3 (2×100 ml) and water (3×100 ml). The organic solution was dried over anhydrous sodium sulfate. Sodium sulfate was removed by filtration. 6 g of acetic acid was added into the reaction mixture with stirring. Hexane (200 ml) was added. The solid product was collected by filtration. After drying, it yielded 45 g of the desired product (85.8%). Hygroscopic product; Solubility in water: 100 mg/ml; Elementary analysis: C34H59NO9S; MW: 657.90. Calculated % C, 62.07; H, 9.04; N, 2.13; O, 21.89; S, 4.87. Found % C, 62.02; H, 9.06; N, 2.11; O, 21.95; S, 4.86.
49.9 g (0.1 mol) of 9,11,15-triacetoxyprost-13-en-1-oic acid was dissolved in 300 ml of chloroform. 20.6 g of N,N′-Dicyclohexylcarbodiimide was added into the reaction mixture. 13.1 g of dimethylaminoethyl mercaptan was added into the reaction mixture. The mixture was stirred for 3 hours at RT. The solid was removed by filtration. The chloroform solution was washed with 5% NaHCO3 (2×100 ml) and water (3×100 ml). The organic solution was dried over anhydrous sodium sulfate. Sodium sulfate was removed by filtration. 6 g of acetic acid was added into the reaction mixture with stirring. Hexane (200 ml) was added. The solid product was collected by filtration. After drying, it yielded 45 g of the desired product (85.8%). Hygroscopic product; Solubility in water: 100 mg/ml; Elementary analysis: C32H53NO9; MW: […] Calculated % C, 64.51; H, 8.97; N, 2.35; O, 24.17. Found % C, 64.47; H, 8.99; N, 2.34; O, 24.20.
37.7 g (0.1 mol) of sodium 9,11,15-trihydroxyprosta-5,13-dien-1-oate was dissolved in 100 ml of acetonitrile. 39 g (0.15 mol) of 2-Bromo-N,N-diethylethylamine.HBr in ethyl acetate was added into the reaction mixture. The mixture was stirred for 3 h at RT. Then 8 g of sodium bicarbonate was added into the reaction mixture. The mixture is stirred for another 2 h at RT. The solvents were evaporated off. 250 ml of ethyl acetate was added into the reaction mixture and the mixture was washed with water (3×100 ml). The organic solution was dried over anhydrous sodium sulfate. Sodium sulfate was removed by filtration. 6 g of acetic acid was added into the reaction mixture with stirring. […] Calculated % C, 65.47; H, 10.01; N, 2.73; O, 21.80. […]

[1] = pH 7.4
Procedure: The penetration rates of HPPs and their parent drugs through human skin were measured in vitro by modified Franz cells. The Franz cells have two chambers, the top sample chamber and the bottom receiving chamber. The human skin tissue (360-400 μm thick) that separates the top and the receiving chambers was isolated from the anterior or posterior thigh areas.
The compound tested (2 mL, 20% in 0.2 M phosphate buffer, pH. 7.4) were added to the sample chamber of a Franz cell. The receiving chamber contains 10 ml of 2% bovine serum albumin in saline which was stirred at 600 rpm. The cumulative amounts of the tested compounds penetrating the skin versus time were determined by high-performance liquid chromatography (HPLC) method.

CC(=O)O.CCCCCC(C)(O)C=C[C@H]1C(O)CC(O)[C@@H]1CC=CCCCC(=O)OCCN(CC)CC (some centres unmarked) [N,N-diethylaminoethyl 9,11,15-trihydroxy-15-methylprosta-5,13-dien-1-oate.AcOH]
Solubility in water (Solubility in water): 100 mg/mL | In vitro penetration rate (apparent flux), prodrug compounds [1]: 0.80 mg/cm^2/h
